Results on nine molecules are retold here after ChEMBL document CHEMBL3779770, “Synthesis, biological evaluation and molecular docking study of some novel indole and pyridine based 1,3,4-oxadiazole derivatives as potential antitubercular agents” (Bioorg Med Chem Lett, 2016).

In series [1] the test system is Escherichia coli. Nature of the series: Antibacterial activity against Escherichia coli NCIM 2688 after 8 hrs. To be noted: NCIM 2688, 8 h. The format is functional, organism-based.
For series [2], the system named is Mycobacterium tuberculosis. Nature of the series: Antitubercular activity against active state Mycobacterium tuberculosis H37Ra assessed as viable cells after 8 days by XTT reduction menadione assay. The format is functional, organism-based. Conditions: 192 h.
Series [3] is described as follows: Cytotoxicity against human PANC1 cells after 48 hrs by MTT assay. The format is cell-based, PANC-1. To be noted: for GI50 at 48 h: PANC1 cells; for GI90: panc-1, 48 h. For orientation: Formazan colour is commonly taken as a measure of viable cells.
Series [4] relates to Pseudomonas fluorescens. Nature of the series: Antibacterial activity against Pseudomonas fluorescens NCIM 2036 after 8 hrs. The class given is functional, organism-based. To be noted: NCIM 2036, 8 h.
For series [5], the system named is Mycobacterium tuberculosis. Briefly: Antitubercular activity against dormant state Mycobacterium tuberculosis H37Ra assessed as viable cells after 12 days by XTT reduction menadione assay. The format is functional, organism-based. Conditions: 288 h.
A short description of series [6]: (§1) Cytotoxicity against human A549 cells after 48 hrs by MTT assay. The class given is cell-based. To be noted: A549 cells.
Series [7] has as its system A549. The description is as §1. Conditions: a549, 48 h. The format is cell-based.
Series [8] can be described thus: (§2) Cytotoxicity against human HeLa cells after 72 hrs by MTT assay. The format is cell-based. To be noted: HeLa cells.
Series [9] relates to HeLa. Described as §2. To be noted: hela, 72 h. The format is cell-based.
Series [10] deals with Staphylococcus aureus. Briefly: Antibacterial activity against Staphylococcus aureus NCIM 2010 after 12 hrs. The format is functional, organism-based. To be noted: NCIM 2010, 12 h.
Series [11] concerns Bacillus subtilis. Briefly: Antibacterial activity against Bacillus subtilis NCIM 2079 after 12 hrs. The class given is functional, organism-based. To be noted: NCIM 2079, 12 h.
Series [12] in a line: Selectivity index, ratio of GI50 for human A549 cells to MIC for dormant state Mycobacterium bovis BCG ATCC 35734. The class given is toxicity, cell-based. To be noted: read-out: Selectivity Index.
A short description of series [13]: Selectivity index, ratio of GI50 for human A549 cells to MIC for active state Mycobacterium bovis BCG ATCC 35734. The format is toxicity, cell-based. To be noted: read-out: Selectivity Index.
Series [14] in a line: Selectivity index, ratio of GI50 for human PANC1 cells to MIC for dormant state Mycobacterium bovis BCG ATCC 35734. The format is toxicity, cell-based, PANC-1. To be noted: read-out: Selectivity Index.
The nature of series [15]: Selectivity index, ratio of GI50 for human HeLa cells to MIC for active state Mycobacterium bovis BCG ATCC 35734. The class given is toxicity, cell-based. To be noted: read-out: Selectivity Index.
Series [16] is described as follows: Selectivity index, ratio of GI50 for human HeLa cells to MIC for dormant state Mycobacterium bovis BCG ATCC 35734. To be noted: read-out: Selectivity Index. The class given is toxicity, cell-based.
The nature of series [17]: Selectivity index, ratio of GI50 for human PANC1 cells to MIC for active state Mycobacterium bovis BCG ATCC 35734. The format is toxicity, cell-based, PANC-1. Conditions: read-out: Selectivity Index.

Converted amounts (≈) assume the structure as drawn. Bounds are passed on as bounds.

As for `O=C(/C=C\c1cccc(Br)c1)N1N=C(c2ccncc2)OC1c1c[nH]c2ccccc12` (configuration not stated), the IC50 in [1] is 2.39 µg/mL (≈ 5.05 µM); in series [2], above 30 µg/mL; in [4] it was 3.19 µg/mL (≈ 6.74 µM); in [5], above 30 µg/mL; in series [10] it was 2.01 µg/mL (≈ 4.25 µM); in series [11], 4.74 µg/mL (≈ 10 µM). For the same molecule, the MIC in series [1] is 18.2 µg/mL (≈ 38.6 µM); in [2], above 30 µg/mL; in [4], 19.1 µg/mL (≈ 40.2 µM); in [5] it was above 30 µg/mL; in series [10], 21.1 µg/mL (≈ 44.5 µM); in series [11], 22.6 µg/mL (≈ 47.9 µM). For the same molecule, the GI50 at 48 h in series [3] and in series [6] was above 30 µg/mL in each case. The GI90 in series [3], in [7] and in series [9] was above 30 µg/mL in each case. This molecule also displayed a GI50 at 72 h in series [8] above 30 µg/mL.
As for `O=C(/C=C/c1c(Cl)cccc1Cl)N1N=C(c2ccncc2)OC1c1c[nH]c2ccccc12` (configuration not stated), the IC50 was 14.8 µg/mL (≈ 31.9 µM) in series [1]; 12.7 µg/mL (≈ 27.4 µM) in series [2]; 15.6 µg/mL (≈ 33.6 µM) in [4]; 13.7 µg/mL (≈ 29.6 µM) in series [5]; 86.8 µg/mL (≈ 187 µM) in series [10]; 19.2 µg/mL (≈ 41.4 µM) in series [11]. Further, the MIC in series [1] was above 256 µg/mL; in [2] it was above 30 µg/mL; in [4] it was above 256 µg/mL; in [5], above 30 µg/mL; in series [10], 148 µg/mL (≈ 320 µM); in series [11], above 256 µg/mL. Moreover, the GI50 at 48 h in series [3] and in series [6] was above 30 µg/mL each time. In addition, the GI90 in series [3], in series [7] and in series [9] was above 30 µg/mL each time. In series [8], the GI50 at 72 h was above 30 µg/mL.
`O=C(/C=C\c1cccc(Cl)c1Cl)N1N=C(c2ccncc2)OC1c1c[nH]c2ccccc12` (configuration not stated): the IC50 in series [1] was 5.99 µg/mL (≈ 12.9 µM); in series [2] it was above 30 µg/mL; in [4], 6.79 µg/mL (≈ 14.7 µM); in series [5], above 30 µg/mL; in series [10], 7.59 µg/mL (≈ 16.4 µM); in series [11], 8.39 µg/mL (≈ 18.1 µM). Moreover, the MIC in series [1] was 159 µg/mL (≈ 343 µM); in series [2] it was above 30 µg/mL; in [4] it was 198 µg/mL (≈ 427 µM); in series [5], above 30 µg/mL; in series [10], 162 µg/mL (≈ 349 µM); in [11], 168 µg/mL (≈ 362 µM). For the same molecule, the GI50 at 48 h in series [3] and in series [6] was above 30 µg/mL each time. The GI90 in series [3], in series [7] and in series [9] was above 30 µg/mL throughout. The GI50 at 72 h in series [8] is above 30 µg/mL.
In the case of `O=C(/C=C\c1ccccc1O)N1N=C(c2ccncc2)OC1c1c[nH]c2ccccc12` (configuration not stated), the selectivity ratio is above 25.2 in series [12]; above 31.9 in series [13]; above 25.2 in [14]; 28.5 in [15]; 22.5 in series [16]; above 31.9 in series [17]. Also, the IC50 in [1] is 21.7 µg/mL (≈ 52.9 µM); in series [2], above 30 µg/mL; in series [4] it was 22.5 µg/mL (≈ 54.9 µM); in series [5], above 30 µg/mL; in series [10], 23.3 µg/mL (≈ 56.8 µM); in series [11] it was 22.1 µg/mL (≈ 53.9 µM). The MIC was above 256 µg/mL in [1]; above 30 µg/mL in series [2]; 192 µg/mL (≈ 469 µM) in series [4]; above 30 µg/mL in series [5]; above 256 µg/mL in series [10]; above 256 µg/mL in series [11]. Further, the GI50 at 48 h in series [3] and in series [6] was above 30 µg/mL in each case. For the same molecule, the GI90 in [3], in series [7] and in series [9] was above 30 µg/mL throughout. In series [8], this molecule returned a GI50 at 72 h of 26.8 µg/mL (≈ 65.3 µM).
Consider `O=C(/C=C\c1ccc(Cl)cc1)N1N=C(c2ccncc2)OC1c1c[nH]c2ccccc12` (configuration not stated), for which the IC50 is above 256 µg/mL in [1]; above 30 µg/mL in series [2]; above 256 µg/mL in series [4]; above 30 µg/mL in [5]; above 256 µg/mL in series [10]; above 256 µg/mL in series [11]. The MIC in series [1] was above 256 µg/mL; in series [2], above 30 µg/mL; in series [4] it was above 256 µg/mL; in [5] it was above 30 µg/mL; in series [10], above 256 µg/mL; in series [11] it was above 256 µg/mL. For the same molecule, the GI50 at 48 h in series [3] and in [6] was above 30 µg/mL each time. In addition, the GI90 in series [3], in series [7] and in series [9] was above 30 µg/mL each time. Besides, in [8], the GI50 at 72 h was above 30 µg/mL.
Take `O=C(/C=C\c1ccc(Br)cc1)N1N=C(c2ccncc2)OC1c1c[nH]c2ccccc12` (configuration not stated): the IC50 in [1] was 12.1 µg/mL (≈ 25.6 µM); in series [2] it was above 30 µg/mL; in series [4] it was 10.4 µg/mL (≈ 22 µM); in series [5], above 30 µg/mL; in series [10], 12.8 µg/mL (≈ 27 µM); in series [11], 15.2 µg/mL (≈ 32.1 µM). Further, the MIC in series [1] is above 256 µg/mL; in series [2] it was above 30 µg/mL; in series [4] it was above 256 µg/mL; in [5], above 30 µg/mL; in [10], above 256 µg/mL; in [11], above 256 µg/mL. Further, the GI50 at 48 h in series [3] and in series [6] was above 30 µg/mL each time. Moreover, the GI90 in series [3], in series [7] and in series [9] was above 30 µg/mL in each case. Also, the GI50 at 72 h in series [8] was above 30 µg/mL.
As for `O=C(/C=C\c1cccc(Cl)c1)N1N=C(c2ccncc2)OC1c1c[nH]c2ccccc12` (configuration not stated), the IC50 in series [1] was 14 µg/mL (≈ 32.6 µM); in [2], 2.54 µg/mL (≈ 5.92 µM); in [4] it was 12.1 µg/mL (≈ 28.3 µM); in series [5] it was above 30 µg/mL; in series [10], 14.5 µg/mL (≈ 33.9 µM); in series [11], 19.3 µg/mL (≈ 45 µM). In addition, the minimal inhibitory concentration (MIC) in [1] is above 256 µg/mL; in series [2], above 30 µg/mL; in [4], above 256 µg/mL; in [5], above 30 µg/mL; in series [10] it was above 256 µg/mL; in [11] it was above 256 µg/mL. In addition, the GI50 at 48 h in series [3] and in [6] was above 30 µg/mL each time. The GI90 in series [3], in [7] and in [9] was above 30 µg/mL throughout. The molecule also showed a concentration for 50% growth inhibition (GI50) at 72 h in series [8] above 30 µg/mL.
As to `NNC(=O)c1ccncc1` [ISONIAZID], the selectivity ratio in series [12] was above 2560; in [13], above 3030; in [14] it was above 2560; in series [15] it was above 3030; in series [16] it was above 2560; in series [17] it was above 3030. In addition, the IC50 was determined as 0.0013 µg/mL (≈ 0.00948 µM) in [2] and 0.0014 µg/mL (≈ 0.0102 µM) in [5]. In addition, the MIC in [2] was 0.031 µg/mL (≈ 0.226 µM); in series [5], 0.034 µg/mL (≈ 0.248 µM).
`CO[C@H]1/C=C/O[C@@]2(C)Oc3c(C)c(O)c4c(O)c(c(/C=N/N5CCN(C)CC5)c(O)c4c3C2=O)NC(=O)/C(C)=C\C=C\[C@H](C)[C@H](O)[C@@H](C)[C@@H](O)[C@@H](C)[C@H](OC(C)=O)[C@@H]1C` [RIFAMPIN]: the selectivity ratio in series [12] was above 2700; in series [13], above 2860; in series [14], above 2700; in series [15] it was above 2860; in series [16] it was above 2700; in series [17], above 2860. In addition, the IC50 in series [2] was found to be 0.0016 µg/mL (≈ 0.00194 µM); in [5], 0.0017 µg/mL (≈ 0.00207 µM). The figures for the MIC in series [2] and in series [5] were 0.041 µg/mL (≈ 0.0498 µM) and 0.045 µg/mL (≈ 0.0547 µM), respectively.

The term IC50 denotes the point on the concentration scale where inhibition reaches its midpoint. As usually defined, the MIC is the smallest concentration in the dilution series that meets the test's criterion for growth inhibition. One may read the GI50 as the concentration at which growth is held to half of that of the control. A high value points to less potent growth inhibition.
